Results as given in PMC4721923 (PLoS ONE, 2015).

T1: OCT1 (Homo sapiens, UniProt O15245)
T1 construct: containing the full length SLC22A1 cDNA (NM_003057) encoding the human OCT1 protein; expressed in transfected cells
T1 sequence (O15245 1-554): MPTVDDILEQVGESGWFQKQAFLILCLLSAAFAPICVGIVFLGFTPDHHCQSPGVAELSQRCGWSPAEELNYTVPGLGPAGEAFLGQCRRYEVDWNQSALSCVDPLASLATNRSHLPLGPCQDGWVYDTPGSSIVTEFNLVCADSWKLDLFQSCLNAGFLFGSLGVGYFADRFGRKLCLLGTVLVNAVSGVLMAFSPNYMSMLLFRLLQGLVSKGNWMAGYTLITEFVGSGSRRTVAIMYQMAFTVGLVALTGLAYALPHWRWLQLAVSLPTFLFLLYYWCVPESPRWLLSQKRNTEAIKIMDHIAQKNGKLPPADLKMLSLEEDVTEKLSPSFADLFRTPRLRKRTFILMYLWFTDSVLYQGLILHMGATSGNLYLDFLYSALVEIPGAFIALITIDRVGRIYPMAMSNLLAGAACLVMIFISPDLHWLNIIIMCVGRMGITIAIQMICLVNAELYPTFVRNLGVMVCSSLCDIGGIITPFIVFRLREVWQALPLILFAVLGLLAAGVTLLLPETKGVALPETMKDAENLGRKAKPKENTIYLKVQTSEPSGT

T2: OCT3 (Homo sapiens, UniProt O75751)
T2 construct: expressed in transfected cells; host or cells: HEK293 (HEK-OCT3)
T2 sequence (O75751 1-556): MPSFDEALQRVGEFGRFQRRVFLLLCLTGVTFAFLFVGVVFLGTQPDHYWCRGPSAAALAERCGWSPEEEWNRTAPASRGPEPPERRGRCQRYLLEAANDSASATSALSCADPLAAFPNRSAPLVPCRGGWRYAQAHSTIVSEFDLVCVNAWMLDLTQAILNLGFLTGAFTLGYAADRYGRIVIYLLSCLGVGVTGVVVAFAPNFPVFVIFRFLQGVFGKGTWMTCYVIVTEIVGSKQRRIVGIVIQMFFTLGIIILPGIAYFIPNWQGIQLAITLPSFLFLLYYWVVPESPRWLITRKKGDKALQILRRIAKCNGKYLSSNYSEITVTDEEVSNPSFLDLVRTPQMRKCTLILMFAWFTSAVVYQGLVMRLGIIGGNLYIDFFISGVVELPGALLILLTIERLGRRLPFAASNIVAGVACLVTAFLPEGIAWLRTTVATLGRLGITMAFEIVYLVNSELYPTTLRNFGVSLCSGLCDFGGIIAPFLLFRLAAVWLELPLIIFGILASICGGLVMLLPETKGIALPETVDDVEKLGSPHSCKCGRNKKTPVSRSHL


Columns and labels:
OCT1 = biological target: T1, OCT1; test: Michaelis-Menten kinetics of ASP+ uptake, HEK-OCT1; type: cell-based
Description: (§1) The previously described fluorescent substrate of organic cation transporters, 4-(4-dimethylaminostyryl)-N-methylpyridinium (ASP^+), was used to determine the function of OCT1 and OCT3 by flow cytometry in the absence and the presence of bendamustine and selected bendamustine esters. HEK293 cells expressing the transporter of interest were trypsinized and washed twice with PBS, prior to re-suspension of 0.5 · 10^6 cells in 500 μL of PBS containing 2% (v/v) FCS. The cells were incubated with ASP^+ (100 μM stock solution in PBS containing 10% DMSO) for 5 minutes, allowing for cellular accumulation, and subsequently analyzed with a FACSCalibur flow cytometer. ASP^+ was excited at 488 nm and the fluorescence was measured using a 530/30 nm and a 585/42 band-pass filter. At least 1 · 10^4 single cells were analyzed by appropriate FSC/SSC gating.
(§2) Subsequently, two volumes of an ice-cold 200 μM solution of the standard inhibitor of OCT1 and OCT3, tetrapentyl ammonium (TPA), in PBS/FCS were added to one volume of cell suspension. The mixture was immediately analyzed. The mean fluorescence intensities (MFI) were calculated using FlowJo V10, and the difference between total (HEK-OCT1 or HEK-OCT3 cells) and unspecific (HEK-Co cells) uptake was plotted as specific uptake against the concentration of ASP^+. […] Km was calculated according to the Michaelis-Menten equation using GraphPad Prism 5.01.

OCT3 = biological target: T2, OCT3; test: Michaelis-Menten kinetics of ASP+ uptake, HEK-OCT3; type: cell-based
Description: as §1, §2

[1] = system: Capan-1 cells (pancreatic adenocarcinoma); test: Chemosensitivity assay (crystal violet assay), Capan-1; type: cell-based, human; details: Homo sapiens, CAPAN-1, 96 h, 96 hours of incubation, mean ± SEM
Description: (§3) Depending on the characteristics of the cells, two different assays were performed. For adherently growing cells (HaCaT, HT-29, NCI-H460, SK-MEL-3, MG-63, Capan-1), cytotoxic and cytocidal effects were determined in the crystal violet assay, whereas for loosely adherent cells (LNCaP, SK-ES-1) and cells growing in suspension (HEL 92.1.7, Jurkat, U-937) the MTT-assay was used with minor modifications. In brief, 1.5 · 10^3 (HaCaT, HT-29, NCI-H460, SK-MEL-3, MG-63, Capan-1) or 5 · 10^3 (Jurkat, U-937, HEL92.1.7, LNCaP, SK-ES-1) cells per well were seeded into flat-bottom 96-well plates (Sarstedt, Nümbrecht, Germany). All compounds were used as solutions prepared in DMSO and tested at final concentrations (8 replicates per concentration) of 1, 3, 10, 30 and 50 μM. In case of the vehicle control and test compounds, the final DMSO concentration amounted to 0.1%. Absorbance was measured at 580 nm in a 96-well plate reader (GENios pro microplate reader, Tecan, Salzburg, Austria). Effects were quantified as previously described for both assays.

[2] = system: U-937 cells (histiocytic lymphoma); test: Chemosensitivity assay (MTT-assay), U-937; type: cell-based, human; details: Homo sapiens, U-937, 96 h, 96 hours of incubation, mean ± SEM
Description: as §3

[3] = system: SK-ES-1 cells (Ewing's sarcoma); test: Chemosensitivity assay (MTT-assay), SK-ES-1; type: cell-based, human; details: 96 hours of incubation, mean ± SEM
Description: as §3

[4] = system: HEL 92.1.7 cells (erythroleukemia); test: Chemosensitivity assay (MTT-assay), HEL 92.1.7; type: cell-based, human; details: Homo sapiens, HEL 92.1.7, 96 h, 96 hours of incubation, mean ± SEM
Description: as §3

[5] = system: HT-29 cells (colorectal adenocarcinoma); test: Chemosensitivity assay (crystal violet assay), HT-29; type: cell-based, human; details: Homo sapiens, 96 hours of incubation, mean ± SEM, read-out: IC50
Description: as §3

[6] = system: LNCaP cells (prostate cancer); test: Chemosensitivity assay (MTT-assay), LNCaP; type: cell-based, human; details: Homo sapiens, 96 hours of incubation, mean ± SEM, read-out: IC50
Description: as §3

[7] = system: NCI-H460 cells (large cell lung cancer); test: Chemosensitivity assay (crystal violet assay), NCI-H460; type: cell-based, human; details: Homo sapiens, 96 hours of incubation, mean ± SEM, read-out: IC50
Description: as §3

[8] = system: SK-MEL-3 cells (malignant melanoma); test: Chemosensitivity assay (crystal violet assay), SK-MEL-3; type: cell-based, human; details: Homo sapiens, SK-MEL3, 96 hours of incubation, mean ± SEM, read-out: IC50
Description: as §3

[9] = system: Jurkat cells (acute T-cell leukemia); test: Chemosensitivity assay (MTT-assay), Jurkat; type: cell-based, human; details: Homo sapiens, 96 h, 96 hours of incubation, mean ± SEM
Description: as §3

[10] = system: MG-63 cells (osteosarcoma); test: Chemosensitivity assay (crystal violet assay), MG-63; type: cell-based, human; details: Homo sapiens, MG-63, 96 h, 96 hours of incubation, crystal violet assay, mean ± SEM
Description: as §3

[11] = substrate: CN(C)c1ccc(/C=C/c2cc[n+](C)cc2)cc1; test: Michaelis-Menten kinetics of ASP+ uptake, HEK-OCT1; type: cell-based, human; details: other: HEK-OCT1; substrate uptake, flow cytometry; 37.0 °C
Description: as §1, §2

[12] = substrate: CN(C)c1ccc(/C=C/c2cc[n+](C)cc2)cc1; test: Michaelis-Menten kinetics of ASP+ uptake, HEK-OCT3; type: cell-based, human; details: other: HEK-OCT3; substrate uptake, flow cytometry; 37.0 °C
Description: as §1, §2

| Molecule | vmax (maximal uptake rate) (OCT1) | vmax (maximal uptake rate) (OCT3) | IC50 [1] | IC50 [2] | IC50 [3] | IC50 ([3]; Homo sapiens, SK-ES1, 96 h) | IC50 [4] | IC50 [5] | IC50 [6] | IC50 [7] | IC50 [8] | IC50 [9] | IC50 [10] | Km [11] | Km [12] |
| --- | --- | --- | --- | --- | --- | --- | --- | --- | --- | --- | --- | --- | --- | --- | --- |
| CN(C)c1ccc(C=Cc2cc[n+](C)cc2)cc1.[I-] [ASP^+, 4-[4-(dimethylamino)styryl]-N-methylpyridinium iodide] | 2808 ± 78 MFI/(10^4 cells · min) | 5321 ± 89 MFI/(10^4 cells · min) | – | – | – | – | – | – | – | – | – | – | – | – | – |
| CCOC(=O)CCCc1nc2cc(N(CCCl)CCCl)ccc2n1C [Compound 3] | – | – | 1000 ± 10 nM | 1900 ± 10 nM | 180 ± 10 nM | ~200 nM | 2900 ± 200 nM | 10000 ± 100 nM | 1500 ± 100 nM | 4800 ± 100 nM | 21700 ± 4100 nM | 3800 ± 40 nM | 2100 ± 60 nM | – | – |
| Cn1c(CCCC(=O)OCCN2CCCCC2)nc2cc(N(CCCl)CCCl)ccc21 [Compound 6] | – | – | 170 ± 10 nM | 1100 ± 200 nM | – | 190 ± 10 nM | 1300 ± 100 nM | 1700 ± 100 nM | 750 ± 30 nM | 1200 ± 100 nM | 1240 ± 100 nM | 830 ± 10 nM | 530 ± 10 nM | – | – |
| CN1CCN(CCOC(=O)CCCc2nc3cc(N(CCCl)CCCl)ccc3n2C)CC1 [Compound 7] | – | – | 250 ± 20 nM | 1300 ± 300 nM | – | 190 ± 30 nM | 1700 ± 100 nM | 2400 ± 100 nM | 930 ± 120 nM | 1200 ± 100 nM | 1000 ± 270 nM | 900 ± 30 nM | 550 ± 10 nM | – | – |
| human OCT1 (Homo sapiens) (protein, containing the full length SLC22A1 cDNA (NM_003057) encoding the human OCT1 protein; expressed in transfected cells) MPTVDDILEQVGESGWFQKQAFLILCLLSAAFAPICVGIVFLGFTPDHHCQSPGVAELSQRCGWSPAEELNYTVPGLGPAGEAFLGQCRRYEVDWNQSALSCVDPLASLATNRSHLPLGPCQDGWVYDTPGSSIVTEFNLVCADSWKLDLFQSCLNAGFLFGSLGVGYFADRFGRKLCLLGTVLVNAVSGVLMAFSPNYMSMLLFRLLQGLVSKGNWMAGYTLITEFVGSGSRRTVAIMYQMAFTVGLVALTGLAYALPHWRWLQLAVSLPTFLFLLYYWCVPESPRWLLSQKRNTEAIKIMDHIAQKNGKLPPADLKMLSLEEDVTEKLSPSFADLFRTPRLRKRTFILMYLWFTDSVLYQGLILHMGATSGNLYLDFLYSALVEIPGAFIALITIDRVGRIYPMAMSNLLAGAACLVMIFISPDLHWLNIIIMCVGRMGITIAIQMICLVNAELYPTFVRNLGVMVCSSLCDIGGIITPFIVFRLREVWQALPLILFAVLGLLAAGVTLLLPETKGVALPETMKDAENLGRKAKPKENTIYLKVQTSEPSGT | – | – | – | – | – | – | – | – | – | – | – | – | – | 3.1 ± 0.1 µM | – |
| OCT3 (Homo sapiens) (protein, expressed in transfected cells; host or cells: HEK293 (HEK-OCT3)) MPSFDEALQRVGEFGRFQRRVFLLLCLTGVTFAFLFVGVVFLGTQPDHYWCRGPSAAALAERCGWSPEEEWNRTAPASRGPEPPERRGRCQRYLLEAANDSASATSALSCADPLAAFPNRSAPLVPCRGGWRYAQAHSTIVSEFDLVCVNAWMLDLTQAILNLGFLTGAFTLGYAADRYGRIVIYLLSCLGVGVTGVVVAFAPNFPVFVIFRFLQGVFGKGTWMTCYVIVTEIVGSKQRRIVGIVIQMFFTLGIIILPGIAYFIPNWQGIQLAITLPSFLFLLYYWVVPESPRWLITRKKGDKALQILRRIAKCNGKYLSSNYSEITVTDEEVSNPSFLDLVRTPQMRKCTLILMFAWFTSAVVYQGLVMRLGIIGGNLYIDFFISGVVELPGALLILLTIERLGRRLPFAASNIVAGVACLVTAFLPEGIAWLRTTVATLGRLGITMAFEIVYLVNSELYPTTLRNFGVSLCSGLCDFGGIIAPFLLFRLAAVWLELPLIIFGILASICGGLVMLLPETKGIALPETVDDVEKLGSPHSCKCGRNKKTPVSRSHL | – | – | – | – | – | – | – | – | – | – | – | – | – | – | 2.7 ± 0.1 µM |
